From PMC13085583 (Cell host & microbe, 2026) come the findings set out here.

The test system of this experiment is CbCdnB. The conditions noted are these: 10 mM Tris-HCl pH 7.4, 25 mM KCl, 20 mM MgCl2, 1 mM MnCl2, 37 °C.

SMILES strings stand for the structures. Where two headings read alike, the source gives them in different places.

CbCdnB, sequence (A0A0L9Y448 1-469): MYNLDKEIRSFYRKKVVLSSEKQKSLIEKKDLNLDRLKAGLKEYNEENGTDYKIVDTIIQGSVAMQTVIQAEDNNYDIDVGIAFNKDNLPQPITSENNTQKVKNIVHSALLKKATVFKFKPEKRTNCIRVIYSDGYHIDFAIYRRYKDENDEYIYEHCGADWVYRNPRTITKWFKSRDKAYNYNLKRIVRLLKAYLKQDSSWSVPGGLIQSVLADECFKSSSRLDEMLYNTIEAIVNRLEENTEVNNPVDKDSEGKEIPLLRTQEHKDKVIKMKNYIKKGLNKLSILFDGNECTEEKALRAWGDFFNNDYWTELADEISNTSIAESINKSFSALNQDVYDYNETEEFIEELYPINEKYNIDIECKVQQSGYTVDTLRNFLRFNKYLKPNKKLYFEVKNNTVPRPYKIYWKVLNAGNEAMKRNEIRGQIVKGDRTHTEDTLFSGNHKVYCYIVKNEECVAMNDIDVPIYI

Take `Nc1ncnc2c1ncn2[C@@H]1O[C@H](COP(=O)(O)OP(=O)(O)OP(=O)(O)O)[C@@H](O)[C@H]1O` [ATP]: for the setting “with GTP”, the “ELISA of product 2′,3′-cGAMP” value is “enzyme reaction products produced when the indicated synthase is incubated with ATP and GTP”. For `Nc1nc2c(ncn2[C@@H]2O[C@H](COP(=O)(O)OP(=O)(O)OP(=O)(O)O)[C@@H](O)[C@H]2O)c(=O)[nH]1` [GTP], where the note is “with ATP”, the “ELISA of product 2′,3′-cGAMP” value was “enzyme reaction products produced when the indicated synthase is incubated with ATP and GTP”.
